Reference: ChEMBL document CHEMBL5252615, “Synthesis, biological activity and mechanism of action of novel allosecurinine derivatives as potential antitumor agents” (Bioorg Med Chem, 2023)
Active and inactive are the calls of the source. No cut-off for these calls is given here.

Experiments:
NB-4 [1] = experiment: Induction of apoptosis in human NB4 cells assessed as accumulation of cells at sub-G1 phase at 2.5 uM after 48 hrs by PI staining based flow cytometric analysis; format: functional, cell-based
THP-1 [2] = experiment: Induction of apoptosis in human THP-1 cells assessed as viable cells at 2.5 uM after 48 hrs by Annexin-V-FITC/PI staining based flow cytometric analysis (reference value: 93.94%); format: functional; settings: read-out: Activity
NB-4 [3] = experiment: Induction of apoptosis in human NB4 cells assessed as decrease in expression level of caspase 3/9 measured at 1 to 5 uM after 48 hrs by Western blotting analysis; format: functional, cell-based; settings: dose 1-5 µM
K562 [4] = experiment: Induction of apoptosis in human K562 cells assessed as decrease in expression level of caspase 3/9 measured at 1 to 5 uM after 48 hrs by Western blotting analysis; format: functional, cell-based; settings: dose 1-5 µM
NB-4 [5] = experiment: Induction of apoptosis in human NB4 cells assessed as early apoptotic cells at 2.5 uM after 48 hrs by Annexin-V-FITC/PI staining based flow cytometric analysis (reference value: 0.86%); format: functional
KG-1 [6] = experiment: Induction of reactive oxygen species production in human KG-1 cells at 1 to 5 uM measured after 48 hrs by DCF fluorescence analysis; format: functional, cell-based; settings: dose 1-5 µM
K562 [7] = experiment: Antitumor activity against human K562 cells assessed as reduction in cell viability incubated for 72 hrs; format: functional, cell-based; settings: K562, 72 h
SU-DHL-2 = experiment: Antitumor activity against human SUDHL2 cells assessed as reduction in cell viability incubated for 72 hrs; format: functional, cell-based; settings: SU-DHL-2, 72 h
KG-1 [8] = experiment: Induction of apoptosis in human KG-1 cells assessed as decrease in expression level of XIAP measured at 1 to 5 uM after 48 hrs by Western blotting analysis; format: functional, cell-based; settings: dose 1-5 µM
HL-60 [9] = experiment: Induction of apoptosis in human HL-60 cells assessed as late apoptotic cells at 2.5 uM after 48 hrs by Annexin-V-FITC/PI staining based flow cytometric analysis (reference value: 0.44%); format: functional
THP-1 [10] = experiment: Induction of apoptosis in human THP-1 cells assessed as accumulation of cells at sub-G1 phase at 2.5 uM after 48 hrs by PI staining based flow cytometric analysis; format: functional, cell-based
K562 [11] = experiment: Induction of apoptosis in human K562 cells assessed as accumulation of cells at sub-G1 phase at 2.5 uM after 48 hrs by PI staining based flow cytometric analysis; format: functional, cell-based
U-937 [12] = experiment: Induction of apoptosis in human U-937 cells assessed as change in mitochondrial membrane potential after 48 hrs by JC-1 staining based flow cytometric analysis; format: functional, cell-based
THP-1 [13] = experiment: Induction of apoptosis in human THP-1 cells assessed as decrease in expression level of PARP measured at 1 to 5 uM after 48 hrs by Western blotting analysis; format: functional, cell-based; settings: dose 1-5 µM
THP-1 [14] = experiment: Induction of apoptosis in human THP-1 cells assessed as late apoptotic cells at 2.5 uM after 48 hrs by Annexin-V-FITC/PI staining based flow cytometric analysis (reference value: 1.26%); format: functional
NB-4 [15] = experiment: Induction of apoptosis in human NB4 cells assessed as decrease in expression level of Bcl-2 measured after 48 hrs by Western blotting analysis; format: functional, cell-based; settings: dose 1-5 µM
KG-1 [16] = experiment: Antitumor activity against human KG-1 cells assessed as reduction in cell viability incubated for 72 hrs; format: functional, cell-based; settings: KG-1, 72 h
KG-1 [17] = experiment: Induction of differentiation of human KG-1 cells assessed as increase in CD11b expression at 0.5 uM measured after 72 hrs by flow cytometric analysis; format: functional, cell-based
THP-1 [18] = experiment: Induction of apoptosis in human THP-1 cells assessed as increase in expression level of p21 measured at 1 to 5 uM after 48 hrs by Western blotting analysis; format: functional, cell-based; settings: dose 1-5 µM
KG-1 [19] = experiment: Induction of apoptosis in human KG-1 cells assessed as decrease in expression level of caspase 3/9 measured at 1 to 5 uM after 48 hrs by Western blotting analysis; format: functional, cell-based; settings: dose 1-5 µM
NB-4 [20] = experiment: Antitumor activity against human NB4 cells assessed as reduction in cell viability incubated for 72 hrs; format: functional, cell-based; settings: NB-4, 72 h
U-937 [21] = experiment: Induction of apoptosis in human U-937 cells assessed as early apoptotic cells at 2.5 uM after 48 hrs by Annexin-V-FITC/PI staining based flow cytometric analysis (reference value: 2.87%); format: functional
SK-OV-3 = experiment: Antitumor activity against human SK-OV-3 cells assessed as reduction in cell viability incubated for 72 hrs; format: functional, cell-based; settings: SK-OV-3, 72 h
NB-4 [22] = experiment: Induction of apoptosis in human NB4 cells assessed as viable cells at 2.5 uM after 48 hrs by Annexin-V-FITC/PI staining based flow cytometric analysis (reference value: 97.96%); format: functional; settings: read-out: Activity
K562 [23] = experiment: Induction of apoptosis in human K562 cells assessed as decrease in expression level of Bcl-2 measured after 48 hrs by Western blotting analysis; format: functional, cell-based; settings: dose 1-5 µM
THP-1 [24] = experiment: Antitumor activity against human THP-1 cells assessed as reduction in cell viability incubated for 72 hrs; format: functional, cell-based; settings: THP-1, 72 h
U-937 [25] = experiment: Induction of apoptosis in human U-937 cells assessed as increase in expression level of p21 measured at 1 to 5 uM after 48 hrs by Western blotting analysis; format: functional, cell-based; settings: dose 1-5 µM
HL-60 [26] = experiment: Induction of apoptosis in human HL-60 cells assessed as accumulation of cells at sub-G1 phase at 2.5 uM after 48 hrs by PI staining based flow cytometric analysis; format: functional, cell-based
KG-1 [27] = experiment: Induction of apoptosis in human KG-1 cells assessed as viable cells at 2.5 uM after 48 hrs by Annexin-V-FITC/PI staining based flow cytometric analysis (reference value: 96.41%); format: functional
U-937 [28] = experiment: Induction of apoptosis in human U-937 cells assessed as necrotic cells at 2.5 uM after 48 hrs by Annexin-V-FITC/PI staining based flow cytometric analysis (reference value: 1.41%); format: functional
THP-1 [29] = experiment: Induction of differentiation of human THP1 cells assessed as increase in CD11b expression at 0.5 uM measured after 72 hrs by flow cytometric analysis; format: functional, cell-based
THP-1 [30] = experiment: Induction of apoptosis in human THP-1 cells assessed as early apoptotic cells at 2.5 uM after 48 hrs by Annexin-V-FITC/PI staining based flow cytometric analysis (reference value: 4.61%); format: functional
KG-1 [31] = experiment: Induction of apoptosis in human KG-1 cells assessed as decrease in expression level of Bcl-2 measured after 48 hrs by Western blotting analysis; format: functional, cell-based; settings: dose 1-5 µM
KG-1 [32] = experiment: Induction of apoptosis in human KG-1 cells assessed as accumulation of cells at sub-G1 phase at 2.5 uM after 48 hrs by PI staining based flow cytometric analysis; format: functional, cell-based
HL-60 [33] = experiment: Induction of differentiation of human HL-60 cells assessed as increase in CD11b expression at 0.5 uM measured after 72 hrs by flow cytometric analysis; format: functional, cell-based
KG-1 [34] = experiment: Induction of apoptosis in human KG-1 cells assessed as early apoptotic cells at 2.5 uM after 48 hrs by Annexin-V-FITC/PI staining based flow cytometric analysis (reference value: 0.70%); format: functional
KG-1 [35] = experiment: Induction of apoptosis in human KG-1 cells assessed as change in mitochondrial membrane potential after 48 hrs by JC-1 staining based flow cytometric analysis; format: functional, cell-based
THP-1 [36] = experiment: Induction of reactive oxygen species production in human THP-1 cells at 1 to 5 uM measured after 48 hrs by DCF fluorescence analysis; format: functional, cell-based; settings: dose 1-5 µM

Q: `O=C1O[C@@]23C[C@@H](C=CC2=C1C(O)c1ccc([N+](=O)[O-])cc1)N1CCCC[C@H]13` (stereo partly drawn) was tested. Which Activity (NB-4 [1]) did it give?
A: Active

Q: And the viability at 2.5 µM (THP-1 [2])?
A: 69.7%

Q: And the Activity (NB-4 [3])?
A: Active

Q: What about the Activity (K562 [4]) of the same molecule?
A: Active

Q: And the Activity (NB-4 [5])?
A: 23.15%

Q: And the Activity (KG-1 [6])?
A: Active

Q: And the IC50 (K562 [7])?
A: 1780 nM

Q: What about the IC50 (SU-DHL-2) of the same molecule?
A: 8680 nM

Q: What about the Activity (KG-1 [8]) of the same molecule?
A: Active

Q: What about the Activity (HL-60 [9]) of the same molecule?
A: 6.43%

Q: And the Activity (THP-1 [10])?
A: Active

Q: And the Activity (K562 [11])?
A: Active

Q: And the Activity (U-937 [12])?
A: Active

Q: What about the Activity (THP-1 [13]) of the same molecule?
A: Active

Q: What about the Activity (THP-1 [14]) of the same molecule?
A: 11.77%

Q: What about the Activity (NB-4 [15]) of the same molecule?
A: Dose-Dependent Effect

Q: What about the IC50 (KG-1 [16]) of the same molecule?
A: 1060 nM

Q: And the Activity (KG-1 [17])?
A: Active

Q: And the Activity (THP-1 [18])?
A: Active

Q: What about the Activity (KG-1 [19]) of the same molecule?
A: Active

Q: And the IC50 (NB-4 [20])?
A: 1880 nM

Q: What about the Activity (U-937 [21]) of the same molecule?
A: 13.42%

Q: What about the IC50 (SK-OV-3) of the same molecule?
A: 4840 nM

Q: And the viability at 2.5 µM (NB-4 [22])?
A: 22.9%

Q: And the Activity (K562 [23])?
A: Dose-Dependent Effect

Q: And the IC50 (THP-1 [24])?
A: 2840 nM

Q: And the Activity (U-937 [25])?
A: Active

Q: What about the Activity (HL-60 [26]) of the same molecule?
A: Active

Q: And the Activity (KG-1 [27])?
A: 45.18%

Q: And the Activity (U-937 [28])?
A: 29.96%

Q: And the Activity (THP-1 [29])?
A: Active

Q: And the Activity (THP-1 [30])?
A: 16.82%

Q: What about the Activity (KG-1 [31]) of the same molecule?
A: Dose-Dependent Effect

Q: And the Activity (KG-1 [32])?
A: Active

Q: And the Activity (HL-60 [33])?
A: Active

Q: What about the Activity (KG-1 [34]) of the same molecule?
A: 0.33%

Q: What about the Activity (KG-1 [35]) of the same molecule?
A: Active

Q: And the Activity (THP-1 [36])?
A: Active
